Source: ChEMBL document CHEMBL1201862, “PubChem BioAssay data set” (2004)
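Protocol summary: plate cells (96-well), add compound at 5 concentrations, incubate 48 h, interpolate endpoints linearly. GI50: concentration for 50% inhibition of growth.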 Activity calls are given as the source filed them. No stated cut-off is given here; in the data, active = GI50 up to about 1.1 µM and inactive = higher.

How the values were obtained:
Assay in all cases: NCI tumour cell line growth inhibition, 48 h
A498 = test system: A498
HT-29 = test system: HT-29
HL-60 = test system: HL-60
NCI-H522 = test system: NCI-H522
K562 = test system: K562
UO-31 = test system: UO-31
SF-539 = test system: SF-539
RXF 393 = test system: RXF 393
Malme-3M = test system: Malme-3M
OVCAR-4 = test system: OVCAR-4
NCI-H226 = test system: NCI-H226
KM12 = test system: KM12
HCT-116 = test system: HCT-116
SF-268 = test system: SF-268
HCT-15 = test system: HCT-15
SN12C = test system: SN12C
NCI-H460 = test system: NCI-H460
DU-145 = test system: DU-145
MDA-MB-231 = test system: MDA-MB-231
BT-549 = test system: BT-549

Compound | GI50 (A498) | GI50 (HT-29) | GI50 (HL-60) | GI50 (NCI-H522) | GI50 (K562) | GI50 (UO-31) | GI50 (SF-539) | GI50 (RXF 393) | GI50 (Malme-3M) | GI50 (OVCAR-4) | GI50 (NCI-H226) | GI50 (KM12) | GI50 (HCT-116) | GI50 (SF-268) | GI50 (HCT-15) [µM] | GI50 (SN12C) | GI50 (NCI-H460) | GI50 (DU-145) | GI50 (MDA-MB-231) | GI50 (BT-549)
CN(C)C(=S)/N=c1\ss/c(=N\C(=S)N(C)C)n1-c1cccc(Cl)c1 | > 100 µM (inactive) | > 100 µM (inactive) | > 100 µM (inactive) | > 100 µM (inactive) | > 100 µM (inactive) | > 100 µM (inactive) | > 100 µM (inactive) | 79.6 µM (inactive) | > 100 µM (inactive) | > 100 µM (inactive) | > 100 µM (inactive) | > 100 µM (inactive) | > 100 µM (inactive) | > 100 µM (inactive) | > 100 | > 100 µM (inactive) | > 100 µM (inactive) | – | – | –
C=C[C@@]1(O)CCCC[C@@H]1CC(Sc1ccccc1)Sc1ccccc1 | 24.4 µM (inactive) | 19.4 µM (inactive) | 49.8 µM (inactive) | 13.4 µM (inactive) | 33 µM (inactive) | 17.2 µM (inactive) | – | 14.9 µM (inactive) | 14.6 µM (inactive) | 16.9 µM (inactive) | 21.8 µM (inactive) | 16.9 µM (inactive) | 15.6 µM (inactive) | 15.5 µM (inactive) | 17.1 | 18.2 µM (inactive) | 13.4 µM (inactive) | 17.7 µM (inactive) | 17.1 µM (inactive) | –
OCC1CC2CC1C1(C2)OCCO1 (stereo unspecified) | > 100 µM (inactive) | > 100 µM (inactive) | > 100 µM (inactive) | > 100 µM (inactive) | > 100 µM (inactive) | > 100 µM (inactive) | > 100 µM (inactive) | > 100 µM (inactive) | > 100 µM (inactive) | > 100 µM (inactive) | > 100 µM (inactive) | > 100 µM (inactive) | > 100 µM (inactive) | > 100 µM (inactive) | – | > 100 µM (inactive) | > 100 µM (inactive) | – | – | –
O=C(C#Cc1ccccc1)N1c2ccccc2CC1c1c[nH]c2ccccc12 (stereo unspecified) | 28.9 µM (inactive) | 18 µM (inactive) | 14.7 µM (inactive) | 11 µM (inactive) | 10.7 µM (inactive) | 23.1 µM (inactive) | 13 µM (inactive) | 4.48 µM (inactive) | 14.9 µM (inactive) | 26.3 µM (inactive) | 9.79 µM (inactive) | 15.6 µM (inactive) | 13.4 µM (inactive) | – | 11.5 | 13 µM (inactive) | 18.6 µM (inactive) | – | – | –
C=CCOn1c(C=C)nc2c(C)cccc21 | 5.66 µM (inactive) | 3.36 µM (inactive) | 1.98 µM (inactive) | 2.29 µM (inactive) | 3.57 µM (inactive) | 2.43 µM (inactive) | – | – | 11.6 µM (inactive) | 8.89 µM (inactive) | 5.47 µM (inactive) | 3.41 µM (inactive) | 2.01 µM (inactive) | 3.89 µM (inactive) | 3.07 | 3.63 µM (inactive) | 2.32 µM (inactive) | – | 3.83 µM (inactive) | 5.16 µM (inactive)
Cn1cc2ccccc2c1-c1nc(F)nc(F)n1 | > 100 µM (inactive) | > 100 µM (inactive) | 45.5 µM (inactive) | > 100 µM (inactive) | > 100 µM (inactive) | > 100 µM (inactive) | > 100 µM (inactive) | > 100 µM (inactive) | > 100 µM (inactive) | > 100 µM (inactive) | > 100 µM (inactive) | 63.5 µM (inactive) | > 100 µM (inactive) | > 100 µM (inactive) | > 100 | > 100 µM (inactive) | > 100 µM (inactive) | – | – | –
Cn1c(SCc2ccc(F)cc2)nnc1C12CC3CC(CC(C3)C1)C2 | 11 µM (inactive) | 16.1 µM (inactive) | 11.1 µM (inactive) | 36.9 µM (inactive) | 24.2 µM (inactive) | 34.4 µM (inactive) | 24.5 µM (inactive) | 27.8 µM (inactive) | 19.5 µM (inactive) | 35.2 µM (inactive) | 33.5 µM (inactive) | – | 23.3 µM (inactive) | 40.4 µM (inactive) | 26.4 | 43.2 µM (inactive) | 40 µM (inactive) | 52 µM (inactive) | 20.1 µM (inactive) | –
N#CC(C(=O)CCCC(=O)Nc1ccccc1[N+](=O)[O-])c1c(Cl)cccc1Cl (stereo unspecified) | > 100 µM (inactive) | > 100 µM (inactive) | 99.1 µM (inactive) | > 100 µM (inactive) | > 100 µM (inactive) | > 100 µM (inactive) | > 100 µM (inactive) | > 100 µM (inactive) | > 100 µM (inactive) | > 100 µM (inactive) | > 100 µM (inactive) | > 100 µM (inactive) | > 100 µM (inactive) | > 100 µM (inactive) | > 100 | > 100 µM (inactive) | > 100 µM (inactive) | – | – | –
